# Measured values taken from patent publication US7816535B2, “Vinyl-phenyl derivatives for inflammation and immune-related uses” (Synta Pharmaceuticals Corp., priority 2006, dated 2010).
# Tested on: IL-2 production
# Assay: Inhibition of IL-2 production in PHA-activated Jurkat cells (ELISA)
# Type: cell-based
# Settings: Homo sapiens, Jurkat, 20 h, PHA 2.5 μg/mL, IL-2 ELISA
# Protocol: Jurkat cells were placed in a 96 well plate (0.5 million cells per well in 1% FBS medium) then a test compound of this invention was added at different concentrations. After 10 minutes, the cells were activated with PHA (final concentration 2.5 μg/mL) and incubated for 20 hours at 37° C. under CO2. The final volume was 200 μL. Following incubation, the cells were centrifuged and the supernatants collected and stored at −70° C. prior to assaying for IL-2 production. A commercial ELISA kit (IL-2 Eli-pair, Diaclone Research, Besancon, France) was used to detect production of IL-2, from which dose response curves were obtained. The IC50 value was calculated as the concentration at which 50% of maximum IL-2 production after stimulation was inhibited versus a non-stimulation control.
row,IC50,SMILES
1,941 nM,"CC1=C(c2ccc(NC(=O)c3c(F)cccc3F)cc2)CCN(C(=O)Oc2ccccc2)C1 [Compound 55, 2,6-Difluoro-N-[4-(1-phenyloxycarbonyl-3-methyl-1,2,5,6-tetrahydro-pyridin-4-yl)-phenyl]-benzamide]"
2,11 nM,"C=CC1=C(c2ccc(NC(=O)c3c(F)cccc3F)cc2)CCCC1 [Compound 101, N-[4-(2-vinyl-cyclohex-1-enyl)-phenyl]-2,6-difluoro-benzamide]"
3,248 nM,"COC(=O)N1CCC(C)=C(c2ccc(NC(=O)c3ccncc3F)cc2)C1 [Compound 45, N-[4-(1-methoxycarbonyl-4-methyl-1,2,5,6-tetrahydro-pyridin-3-yl)-phenyl]-3-fluoro-isonicotinamide]"
4,> 1000 nM,CC1=C(c2ccc(NC(=O)c3ccncc3F)cc2)CN(C#N)CC1 [Compound 57]
5,59.5 nM,"CC1=C(c2ccc(NC(=O)c3c(F)cccc3F)cc2)CN(c2nc(C)c(C)o2)CC1 [Compound 82, 2,6-Difluoro-N-{4-[1-(4,5-dimethyl-oxazol-2-yl)-4-methyl-1,2,5,6-tetrahydro-pyridin-3-yl]-phenyl}-benzamide]"
6,308 nM,"COC(=O)N1CCC(c2nccs2)=C(c2ccc(NC(=O)c3c(F)cccc3F)cc2)C1 [Compound 41, 2,6-Difluoro-N-[4-(1-methoxycarbonyl-4-thiazol-2-yl-1,2,5,6-tetrahydro-pyridin-3-yl)-phenyl]-benzamide]"
7,748 nM,"CC1=C(c2ccc(NC(=O)c3ccncc3C)cc2)C[C@@H]([C@@](C)(O)CO)CC1 [Compound 9, N-(4-((S)-5-((R)-1,2-dihydroxypropan-2-yl)-2-methylcyclohex-1-enyl)phenyl)-3-methylisonicotinamide]"
8,12 nM,"CC1=C(c2ccc(NC(=O)c3c(F)cccc3F)cc2)CN(c2nccs2)CC1 [Compound 44, 2,6-Difluoro-N-[4-(1-thiazol-2-yl-4-methyl-1,2,5,6-tetrahydro-pyridin-3-yl)-phenyl]-benzamide]"

row,SMILES,IC50
1,"CC(=O)OCC(C)=C(C)c1ccc(NC(=O)c2c(F)cccc2F)cc1 [Compound 96, 2,6-Difluoro-N-[4-(1,2-dimethyl-3-acetoxy-propenyl)-phenyl]-benzamide]",631 nM
